In patent US20230312646A1, “ANTIBACTERIAL PEPTIDES” (priority 2020, published 2023):
Where two headings read alike, the source gives them in different places. Square brackets hold non-standard residues; d marks the D form. Peptide text beside a SMILES is read from it. * marks the point of attachment. Phe(3,4-Cl2) = N[C@@H](Cc1ccc(Cl)c(Cl)c1)C(=O)O; Oic = O=C(O)[C@@H]1C[C@@H]2CCCC[C@@H]2N1; dNMeR = CN[C@H](CCCNC(=N)N)C(=O)O; Tridecanoyl = CCCCCCCCCCCCC(=O)*; Cha = N[C@@H](CC1CCCCC1)C(=O)O; NMeDab = CN[C@@H](CCN)C(=O)O

Key:
[1] = test system: Stpaphylococcus aureus HG001; type: cell-based, S. aureus
Method: (§1) Antimicrobial activity of peptide 5d was assessed through the measurement of the Minimal Inhibition Concentration (MIC). MIC assays were performed in duplicate in 96-well microtiter plates on the basis of the protocol recommended by the Clinical and Laboratory Standards Institute. Laboratory strains of Escherichia coli D22, Bacillus subtilis 168 and Stpaphylococcus aureus HG001were cultivated on either LB-agar plates or liquid 1x Mueller Hinton broth. Briefly, a mix of 3-4 fresh (less than 36 hours) colonies grown on LB-agar plates were inoculated in 3 ml of MH broth and incubated for about 4 h at 37° C. under agitation. Dilution of these cultures to an OD600 nm of 0.002 was made in MH broth. Within a time laps not exceeding 30 min, 50 µl of this cell suspension was added to 50 µl of MH broth (containing or not serial dilutions of the peptide 5 d in MH broth) in wells of a 96-well round bottom microwell plate (Greiner; final cell density of about 5 × 10^5 cfu/ml). Plates were incubated at 37° C. for 18-20 hours. MIC was defined as the minimal antibiotic concentration that results in no visible growth of the strain in the micotiter plate well.

Bacillus subtilis 168 = type: cell-based
Method: as §1

Escherichia coli D22 = experiment: MIC assay, E. coli; type: cell-based; conditions: MH broth, 37° C., 18-20 hours
Method: as §1

[2] = target: clamps from Acinetobacter baumannii (^AbSC); experiment: ITC of peptides with A. baumannii clamp; type: binding; conditions: ITC at 25° C.; means of three independant experiments, standard deviations in brackets; read-out: affinities (Kd in nM), A. baumannii
Method: (§2) ITC experiments were performed using an iTC200 or a PEAQ-ITC instrument (Microcal Malvern Panalytical). Peptides (300 or 600 µM) were titrated at 25° C. by sequential injections (usually 2 µl each) into an SC solution (30 or 60 µM). Data were corrected for heat of injection by subtracting the signal of the titration of peptides into proteiN-free buffer solution (Hepes 10 mM pH 7.4, NaCl 0.15 M, EDTA 3 mM). Each titration was performed at least twice. Analyses of experimental data were performed following a classical treatment with the AFFINImeter software (https://www.affinimeter.com; S4S, Santiago de Compostela, Spain). In addition, kinetic information was obtained in some cases with kinITC as implemented in the software AFFINImeter.
(§3) Protein quality was assessed by DLS. The purification of clamps from other bacteria used the same procedure.
(§4) The bacterial sliding clamps present a highly conserved binding site among bacterial species. […] All these species belong to the ESKAPE group and are in the first priority bacteria list established by the World Health Organization for which new antibiotics are urgently needed.

[3] = target: T1, Escherichia coli SC (^EcSC) (Escherichia coli, UniProt P0A988); experiment: biochemical; type: binding
T1 construct: His tag (inferred from the pET15b vector and Ni-NTA purification) (N); made in house; host or cells: E. coli
T1 sequence (P0A988 whole entry): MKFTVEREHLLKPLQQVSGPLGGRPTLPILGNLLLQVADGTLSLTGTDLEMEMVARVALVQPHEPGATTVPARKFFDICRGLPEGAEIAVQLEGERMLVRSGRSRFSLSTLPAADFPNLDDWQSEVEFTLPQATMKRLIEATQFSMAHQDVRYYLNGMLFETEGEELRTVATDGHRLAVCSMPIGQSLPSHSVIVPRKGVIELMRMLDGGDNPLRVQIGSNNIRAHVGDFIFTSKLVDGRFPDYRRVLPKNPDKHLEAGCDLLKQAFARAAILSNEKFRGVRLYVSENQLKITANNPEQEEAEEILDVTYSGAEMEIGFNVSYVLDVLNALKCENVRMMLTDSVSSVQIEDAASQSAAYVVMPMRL
Method: The procedure has been described previously (Wolff, P.; Oliéric, V.; Briand, J. P.; Chaloin, O.; Dejaegere, A.; Dumas, P.; Ennifar, E.; Guichard, G.; Wagner, J.; Burnouf, D. Y., Structure-Based Design of Short Peptide Ligands Binding onto the E. coli Processivity Ring. J. Med. Chem. 2011, 54 (13), 4627-4637). Briefly, E.coli cells were transformed with plasmids pET15b containing the dnaN gene from E. coli and were grown in LB at 37° C. to OD 0.5, then induced by IPTG (0.1 mM) at 28° C. overnight. dnaN proteins fractions were first enriched on a Ni-NTA column, eluted with a histidine step (300 mM) and further purified on a Source Q column in buffer containing 20 mM Tris HCI pH 7.5, 0.5 mM EDTA and 10% (v/v) glycerol, using a gradient from 0 to 0.5 M NaCl. After a final ultracentrifugation (45 K, 1 h, 20° C.), soluble proteins were concentrated on a Centricon 30 K (Millipore) in the same buffer and stored at 4° C. in 2 M ammonium sulfate. Buffer exchange was performed on Centrikon 10 K at 4° C. before use and protein quality was assessed by DLS.
as §2
All newly synthesized peptides were tested for their interaction with ^EcSC by ITC at 25° C. As a general rule, all thermodynamic profiles reveal an exothermic interaction, and a non-favorable entropic component. The resulting negative Gibb’s free energies characterize a spontaneous interaction. The analysis of raw data by the Affinimeter® software also gave access to kinetics rate constant of the interaction.

[4] = target: T2, clamps from Pseudomonas aeruginosa (^PaSC) (Pseudomonas aeruginosa, UniProt Q9I7C4); experiment: ITC of peptides with P. aeruginosa clamp; type: binding; conditions: ITC at 25° C., means of three independant experiments, standard deviations in brackets
T2 construct: made in house
T2 sequence (Q9I7C4 whole entry): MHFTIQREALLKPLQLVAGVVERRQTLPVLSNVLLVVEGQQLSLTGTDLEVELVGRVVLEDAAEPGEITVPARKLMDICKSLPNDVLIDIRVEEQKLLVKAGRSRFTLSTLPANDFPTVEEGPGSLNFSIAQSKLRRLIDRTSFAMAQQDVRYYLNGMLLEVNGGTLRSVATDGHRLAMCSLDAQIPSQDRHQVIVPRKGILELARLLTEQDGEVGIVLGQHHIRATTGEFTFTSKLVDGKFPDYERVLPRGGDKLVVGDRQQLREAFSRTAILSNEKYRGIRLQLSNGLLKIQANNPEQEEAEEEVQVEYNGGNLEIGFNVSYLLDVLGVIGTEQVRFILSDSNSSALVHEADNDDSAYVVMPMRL
Method: as §2, §3, §4

^EcSC = ^EcSC (Escherichia coli, UniProt P0A988); conditions: SPR, J. Med. Chem. 2011; read-out: Kd previously determined by SPR; cited from earlier work
^EcSC, sequence (P0A988 whole entry): as the sequence (P0A988 whole entry) above

[5] = affinities (Kd in nM), E.coli, ITC at 25° C., means of three independant experiments, standard deviations in brackets

SMILES | MIC [1] [µM] | MIC ([1]; MH broth, 37° C., 18-20 hours) [µg/mL] | MIC (Bacillus subtilis 168; 168) [µM] | MIC (Bacillus subtilis 168; MH broth, 37° C., 18-20 hours) [µg/mL] | MIC (µg/ml) (Escherichia coli D22) [µg/mL] | MIC µM (Escherichia coli D22) [µM] | Kd [2] [nM] | ΔG (kcal mol^-1) ([3]; ITC at 25° C.) | Kd ([3]; Kd (nM), ITC at 298.15 K (25° C.)) [nM] | Kd [3, 5] [nM] | kon ([3]; read-out: kon (M^-1 s^-1)) [M⁻¹ s⁻¹] | Kd ([4]; affinities (Kd in nM), P. aeruginosa) [nM] | ΔG ([3]; ITC at 25° C.) [kcal/mol] | ΔG (kcal/mol) ([3]; ITC at 298.15 K (25° C.)) | kon ([3]; read-out: kon (M^-1.s^-1)) [M⁻¹ s⁻¹] | Kd ([4]; read-out: affinities (Kd in nM), P. aeruginosa) [nM] | Kd (^EcSC) [nM]
CCCCCCCCCCCCC(=O)N(C)[C@H](CCCNC(=N)N)C(=O)N[C@@H](CCC(N)=O)C(=O)N[C@@H](CC1CCCCC1)C(=O)N(C)[C@@H](CCNC(C)=O)C(=O)N[C@@H](CC(C)C)C(=O)N[C@@H](Cc1ccc(Cl)c(Cl)c1)C(N)=O [Peptide 5d] (Tridecanoyl-[dNMeR]Q[Cha][NMeDab](Ac)L[Phe(3,4-Cl2)]-NH2) | 4 to 8 | 4.6 to 9.2 | 4 | 4.6 | 2.3 to 4.6 | 2 to 4 | – | – | – | – | – | – | – | – | – | – | –
CC(=O)N[C@@H](CCC(N)=O)C(=O)N[C@@H](CC1CCCCC1)C(=O)N[C@@H](CC(=O)O)C(=O)N[C@@H](CC(C)C)C(=O)N1[C@H](C(=O)N[C@@H](Cc2ccc(Cl)c(Cl)c2)C(=O)O)C[C@@H]2CCCC[C@@H]21 [P50] (Ac-Q[Cha]DL[Oic][Phe(3,4-Cl2)]-OH) | – | – | – | – | – | – | 70 | -10.1 (± 0.2) kcal mol^-1 | 39 | 39 | 60000 | 20 | – | – | – | – | –
CC(=O)N[C@@H](CCC(N)=O)C(=O)N[C@@H](CC1CCCCC1)C(=O)N[C@@H](CC(=O)O)C(=O)N[C@@H](CC(C)C)C(=O)N[C@@H](Cc1ccccc1)C(=O)O [P1, Ac-Gln-Cha-Asp-Leu-Phe-OH, reference compound] (Ac-Q[Cha]DLF-OH) | – | – | – | – | – | – | 655 | – | – | 170 | – | – | -9.2 | -9.2 (± 0.2) kcal/mol | 40000 | 600 | 170
